Experimental data reported in a melting point compilation (Tetko et al.; mined from patent text by program, amines drawn as free bases though some values may be those of a salt).

First: CCOc1cccc(C2C(C(=O)OC)=C(C)NC(C)=C2C(=O)OC)c1OCC(=O)NCCO[N+](=O)[O-]
Second: CCCc1c(O)c(C(C)=O)cc(Br)c1OCCCOc1c(C(C)=O)ccc(OCC(=O)O)c1CCC
The melting point of the first is higher: 159 to 160 °C for the first, 129 to 130 °C for the second.

Compared with Nc1nc(Cl)nc2c1ncn2C1CCCCC1, COc1cc2nc(N3CCN(c4ccnc(Cl)n4)CC3)nc(N)c2cc1OC is higher in melting point: 206 to 209 °C for the first, 266 °C for the second.

First: CCCN(CCCc1c[nH]c2c(Cl)cccc12)C1COc2c(F)ccc(C(N)=O)c2C1 (stereo not drawn)
Second: CCOC(=O)c1ccc(NCCCc2ccc(Cl)cc2)cc1
The melting point of the first is higher: 145 to 154 °C for the first, 122 to 124 °C for the second.

First: O=Cc1ccc(OCCCN2C(=O)c3ccccc3C2=O)cc1
Second: Fc1cnccc1Nn1ccc2cc(OCc3ccccc3)ccc21
The melting point of the first is lower: 120 to 121 °C for the first, 140 °C for the second.

Compared with N=C(O)c1cc(C(O)=NCCS)c(C(=O)O)cc1C(=O)O, CC(=O)Nc1ccc(-c2ccc(CCCC(=O)O)cc2)cc1Br is lower in melting point: 300 °C for the first, 155 to 156 °C for the second.

First: O=c1[nH]c2ccc([N+](=O)[O-])cc2c(=O)n1CCCN1CC=C(c2ccc(Cl)cc2)CC1
Second: Cc1ccc(-n2nc3c4cc(CCc5ccccc5)ccc4[nH]c(=O)n3c2=O)cc1
The melting point of the first is lower: 205 to 207 °C for the first, 303 °C for the second.

First: CCCOc1ccc2c(c1)C(N(C)S(C)(=O)=O)C(O)C(C)(C)O2 (stereo not drawn)
Second: CC1(C)Oc2ccc(Cl)cc2C(CS(=O)(=O)NCC(=O)NCCc2ccccc2)C1O (stereo not drawn)
The melting point of the first is lower: 149 to 151 °C for the first, 168 to 170 °C for the second.

First: O=C(O)CN(Cc1ccccc1)C(=S)CCc1nc2c(F)c(F)cc(F)c2s1
Second: O=C(O)Cc1cc(Cl)ccc1Oc1ccccc1
The melting point of the first is higher: 138 to 140 °C for the first, 119 to 123 °C for the second.

First: Cc1nc(-c2ccc(N3CCN(C)CC3)c([N+](=O)[O-])c2)sc1C(=O)O
Second: Cc1ccc(CNC(=O)c2sc(N3CCN(Cc4ccccc4)C3=O)nc2C)o1
The melting point of the first is higher: 218 to 220 °C for the first, 138 to 139 °C for the second.

Compared with CCn1c(N)c(C(=O)NC)c(=O)c2ccc(-c3ccc(CC(=O)Nc4ccccn4)nc3)nc21, CN(C(=O)Cn1c(-c2ccc(Cl)cc2)nc2cccnc21)c1ccccc1 is lower in melting point: 266 °C for the first, 170 to 171 °C for the second.

Compared with CS(=O)(=O)c1cc(CC(=O)O)cc2c1NC(C(F)(F)F)CC2 (stereo not drawn), CCc1cccc(CC(=O)O)c1OCCCc1cn(-c2ccc(C(F)(F)F)nn2)nc1C(CC)CC is lower in melting point: 124 to 125 °C for the first, 93 to 94 °C for the second.

Compared with O=C(NCCCn1ccnc1)c1ccco1, CCOc1nc(Cc2ccc(Cl)cc2)nc(O)c1NC(=O)c1ccco1 is lower in melting point: 111 to 113 °C for the first, 91.5 to 92.5 °C for the second.

Compared with OC1C(COCC(F)(F)F)OC(n2cnc3c(Nc4ccc(F)cc4)ncnc32)C1O (stereo not drawn), CCCCc1nn(-c2ccccc2C(F)(F)F)c(=O)[nH]1 is lower in melting point: 214 to 215 °C for the first, 124 to 126 °C for the second.

Compared with O=C1NCCN(Cc2ccc(Cl)cc2)C1c1ccccc1 (stereo not drawn), O=c1c2ccc(Cl)cc2n(Cc2ccccc2)n2c(Cl)ccc12 is higher in melting point: 103 to 104 °C for the first, 134 to 136 °C for the second.

Compared with CCCCCCCCCCCNC(=O)N(C)CC(O)C(O)C(O)C(O)CO (stereo not drawn), CCCCCCCCNC(=O)/C=C\SC(=O)CC is lower in melting point: 109 °C for the first, 68 to 70 °C for the second.

First: CC1(C)CCC2=C(C1=O)C(c1ccc(F)c(Br)c1)C1=C(CCS1)N2 (stereo not drawn)
Second: CC1(C)CC(=O)C2=C(C1)NC1=C(C(=O)CC(C)(C)C1)C2c1cccc(Oc2cc(Cl)cc(Cl)c2)c1
The melting point of the first is higher: greater than 270 °C for the first, 254 to 255 °C for the second.

Compared with COC(=O)c1ccccc1OCCOc1cccc2oc(-c3ccccc3)cc(=O)c12, c1ccnc2ccccc2c2ccccc2cc1 is higher in melting point: 160 to 161 °C for the first, 165 to 167 °C for the second.

First: CC=C1OC(=O)c2c(OC)cccc21
Second: COc1cccc(NC(=O)COC(C)=O)c1C#N
The melting point of the first is lower: 106 to 109 °C for the first, 131 to 132 °C for the second.

First: CCCC(O)(CC)C(C)=NO (stereo not drawn)
Second: CCc1c(O)c(=O)ccn1CCOC(=O)C(C)(C)C
The melting point of the first is lower: 59 °C for the first, 113 to 115 °C for the second.

First: COc1cc(C(=O)C=Cc2cccnc2)cc(OC)c1OC
Second: COc1ncc(-c2cc(C=CC(=O)c3ccc(C(=O)O)cc3)c(OC)cc2OC)c(OC)n1
The melting point of the first is lower: 137 to 138 °C for the first, 203 to 205 °C for the second.

First: OCc1cccc2c1CCc1ccsc1-2
Second: CC(O)c1cc2c(s1)C(=O)c1sccc1C2=O (stereo not drawn)
The melting point of the first is lower: 99 to 100 °C for the first, 170 to 172 °C for the second.

First: COC(=O)c1ccc2oc(-c3cc(C)ccc3OC(C)C)cc(=O)c2c1
Second: COC(=O)c1sc2c(c1N)c1ccccc1c(=O)n2-c1ccccc1Br
The melting point of the first is lower: 149 to 151 °C for the first, 214 to 216 °C for the second.

First: COC1=NS(=O)N=C1NCCCCC#CCN1CCCCC1 (stereo not drawn)
Second: NC1=NS(=O)N=C1NCCCNc1ccc(Br)cn1 (stereo not drawn)
The melting point of the first is lower: 134 to 136 °C for the first, 215 to 216 °C for the second.

Compared with Cc1nc2c(c3c1[nH]c1ccccc13)C(=O)CC(C(C)C)C2 (stereo not drawn), O=c1c(-c2n[nH]c3ccccc23)coc2ccccc12 is lower in melting point: 248 to 249 °C for the first, 159 to 160 °C for the second.

First: O=S(=O)(Nc1ccc(Cl)nc1I)c1ccccc1
Second: CC[C@H](Nc1nc(Nc2cccc(NS(C)(=O)=O)c2)nc2[nH]cnc12)c1ccccc1
The melting point of the first is lower: 132 °C for the first, 138 to 141 °C for the second.

First: CSC(SC)=C1C(=O)OC(C)(C)OC1=O
Second: CCc1c(O)c(C(C)=O)c(C)c2c1OC(C)(C)CC2C (stereo not drawn)
The melting point of the first is higher: 114 to 118 °C for the first, 70 to 71 °C for the second.

First: COC(=O)C1=CC(=O)CCC1c1cccs1 (racemic)
Second: CC(=O)Nc1nc(-c2cc(Cl)nc(Cl)c2)cs1
The melting point of the first is lower: 69 °C for the first, 301 °C for the second.

Compared with CSc1ccc(O)cn1, O=C(C=Cc1ccc[nH]1)c1ccccc1Br is lower in melting point: 133 °C for the first, 76 to 78 °C for the second.

First: COc1ccc(CCC(=O)c2cccnc2Oc2ccc(F)cc2)cc1
Second: O=S1(=O)CCN2C=CC=C(c3ccc(Oc4ccc(F)cc4)cc3)C2=N1
The melting point of the first is lower: 73 to 74 °C for the first, 266 to 267 °C for the second.

First: CCCCOc1c(CNC(=O)OC(C)(C)C)n(CC(C)(C)C)c(=O)c2cc(F)ccc12
Second: CC(C)(C)OC(=O)NCCNC(=O)c1ncsc1-c1cccc(OCc2cccc(C#N)c2)c1
The melting point of the first is higher: 149 to 150 °C for the first, 115 °C for the second.

Compared with O=C(O)c1cc(Br)no1, CCC(=O)c1ccsc1N(C)C(C)=O is lower in melting point: 176 to 177 °C for the first, 78.5 to 79.5 °C for the second.

First: CCN1CCN(C2c3c(C)c(N4CCN(c5ccc(OC)cc5)CC4)c(C)c(C)c3OC2(C)C)CC1 (stereo not drawn)
Second: Cn1ccc(COc2nn3c(-c4ccccc4F)nnc3cc2C2CCC2)n1
The melting point of the first is lower: 98 to 100 °C for the first, 184 to 186 °C for the second.

First: COc1cc(Nc2ncc3c(n2)-c2ccccc2CCC3)cc(OC)c1OC
Second: CN(C)Cc1cccc(-c2cc(-c3ccccc3O)nc(NC(=O)c3cccs3)c2C#N)c1
The melting point of the first is lower: 201 to 202 °C for the first, 225 to 226 °C for the second.

First: O=C1c2cccc([N+](=O)[O-])c2OC12CC2
Second: CS(=O)(=O)N1CC2(CCN(C(=O)Nc3cnc(-c4ccccc4)cn3)CC2)c2ccccc21
The melting point of the first is lower: 131 to 134 °C for the first, 201 to 203 °C for the second.

First: CC(C)c1ccc2c(c1)c(Sc1nc3cc(Cl)ccc3s1)c(CC(C)(C)C(=O)O)n2Cc1ccc(Cl)cc1
Second: O=C(Cn1cc(-c2ccc3nnn(Cc4ccc5ncccc5c4)c3n2)cn1)N1CCCC1
The melting point of the first is higher: 154 to 156 °C for the first, 136 to 138 °C for the second.

First: CCOC(=O)C(C)(NC(=O)Cc1ccc2ccccc2c1)C(=O)OCC
Second: NC(c1ccc2ccccc2c1)P(O)O (stereo not drawn)
The melting point of the first is lower: 148 to 150 °C for the first, 237 to 239 °C for the second.

Molecule O=C(O)COc1c(-c2cccc(Cl)c2)cc(C(=O)NCCCCc2ccccc2)cc1-c1cccc(C(F)(F)F)c1 has a melting point of 187 to 190 °C.
